Data published in US20050272700A1, “Topical treatment and prevention of human papilloma virus (HPV) infection” (priority 2004, published 2005).

Tests used:
[1] = system: DMBA-induced mammary tumors; conditions: Wattenberg and Loub 1978; cited from earlier work
[2] = Stability testing of I3C solutions and formulations by HPLC; type: physicochemical; conditions: for amount of the active remaining: aqueous medium, 5° C.; for loss of potency: 2 weeks
Experimental: Stability testing of the formulations was performed by HPLC analysis. The area of the peak representing I3C or a derivative thereof was monitored.

SMILES	reduction of DMBA-induced mammary tumors [1]	amount of the active remaining ([2]; pH 6.0, 2 weeks)	amount of the active remaining ([2]; pH 8.0, 2 weeks)	loss of potency ([2]; same aqueous composition at pH 7.4 without hydroxypropyl-β-cyclodextrin) [%]	loss of potency ([2]; solution at pH 7.4 with added hydroxypropyl-β-cyclodextrin) [%]
c1ccc2c(Cc3c[nH]c4ccccc34)c[nH]c2c1 [DIM, 3,3′-diindoylmethane]	somewhat effective				
OCc1c[nH]c2ccccc12 [Composition I3C, indole-3-carbinol]		completely decomposed	about 93%	16	1.3
